Non-standard residues stand in square brackets, D forms with d. Residues, ends and D or L forms follow the SMILES beside them. *: point of attachment. Phenylacetyl(2,3,4,5,6-F5) = O=C(Cc1c(F)c(F)c(F)c(F)c1F)*; Phe(4-Cl) = N[C@@H](Cc1ccc(Cl)cc1)C(=O)O; hArg = N=C(N)NCCCC[C@H](N)C(=O)O; 12Ado = NCCCCCCCCCCCC(=O)O; Nle = CCCC[C@H](N)C(=O)O; Orn = NCCC[C@H](N)C(=O)O; Abu = CC[C@H](N)C(=O)O; PhAc = O=C(Cc1ccccc1)*; Aoc = NCCCCCCCC(=O)O
How the values were obtained:
Assay type in all cases: cell-based, human
Conditions in all cases: 5 μM, 72 h; relative to MIA602 = 1; Table 3A
CFPAC-1 cells = assay: In vitro cell viability, pancreatic cancer CFPAC-1
Method: (§1) The inhibitory effects of the various synthesized GHRH antagonists were tested in cell proliferation assays in various human cancer cell lines including stomach cancer (KATOIII, N87), colon cancer (HT-29), urothelial cancer (J82, RT4), pancreatic cancer (PANC-1, CFPAC-1), prostatic cancer (PC3), breast cancer (MX-1, HCC1806), ovarian cancer (SK-OV-3, OVCAR-3) and lung cancer (HCC827, H460).
(§2) Cell culture. Human cancer cell lines including pancreatic (PANC-1 and CFPAC-1), lung (HCC827 and H460), stomach (NCI-N87 and KATOIII), urothelial (J82, RT4), prostatic (PC3), breast (MX-1 and HCC 1806), colorectal (HT-29), and ovarian (SK-OV-3 and OVCAR-3) were obtained from the American Type Culture Collection (ATCC) and cultured at 37° C. in a humidified 95% air/5% CO2 atmosphere in the medium recommended by ATCC.
(§3) In vitro cell viability. Cell viability was analyzed as follows: cancer cells including pancreatic (PANC-1 and CFPAC-1), lung (HCC827 and H460), stomach (NCI-N87 and KATOIII), urothelial (J82, RT4), prostatic (PC3) and breast (MX-1 and HCC 1806), colorectal (HT-29) and ovarian (SK-OV-3 and OVCAR-3) were grown on 96 well plates to ˜60% confluence, the cells were starved for 24 h in culture medium containing 0.5% FBS. Cells were then treated with GHRH antagonists MIA602 AVR compounds at concentrations of 1, 2.5 or 5 μM, or vehicle (0.1% DMSO) in quintuplicates for 72 hours. The medium was replaced every 48 hours. Cell viability was measured using CellTiter 96 aqueous one solution kit (Promega). Inhibitory effects of tested AVR compounds in comparison to that of MIA602 are presented as inhibitory potency.
(§4) Inhibitory effects of selected AVR compounds in comparison to that of MIA602 are presented as inhibitory potency (e.g., percentage of inhibition). […] The cell lines tested including lung cancer HCC827 (FIG. 2A), pancreatic cancer CFPAC-1 (FIG. 2B), stomach cancer N87 (FIG. 2C), colon cancer HT-29 (FIG. 2D), breast cancers MX-1 and HCC1806 (FIGS. 2E, F). Based on the results of cell proliferation assay after cancer cells were treated with antagonist at concentration of 5 μM for 72H, the relative inhibitory potency of AVR antagonists in comparison to MIA-602 is summarized in Table 3 A and B. Over 60 AVR compounds were tested in 12 cancer cell lines.
(§5) Based on the results of cell proliferation assay after cancer cells were treated with antagonist at concentration of 5 µM for 72H, * at concentration of 2 µM for 72 H.

KATOIII cells = assay: In vitro cell viability, stomach cancer KATOIII
Method: as §1, §2, §3, §4

HCC827 cells = assay: In vitro cell viability, lung cancer HCC827
Method: as §1, §2, §3, §4, §5

SMILES	Relative inhibitory potency, Pancreatic CFPAC-1 (CFPAC-1 cells)	Relative inhibitory potency, Stomach KATOIII (KATOIII cells)	Relative inhibitory potency, Lung HCC827 (HCC827 cells)
CCCC[C@H](NC(=O)[C@@H](NC(=O)[C@H](CC(=O)O)NC(=O)[C@H](CCC(N)=O)NC(=O)[C@H](CC(C)C)NC(=O)[C@H](CC(C)C)NC(=O)[C@H](CCCCN)NC(=O)[C@H](CCCNC(=N)N)NC(=O)[C@H](C)NC(=O)[C@H](CO)NC(=O)[C@H](CC(C)C)NC(=O)[C@H](CCC(N)=O)NC(=O)[C@H](CC)NC(=O)[C@H](CC(C)C)NC(=O)[C@@H](NC(=O)[C@H](CCCCN)NC(=O)[C@H](CCCNC(=N)N)NC(=O)[C@H](Cc1ccc(OC)cc1)NC(=O)[C@H](CCCNC(=N)N)NC(=O)[C@H](CC(N)=O)NC(=O)[C@@H](NC(=O)[C@H](Cc1ccc(Cl)cc1)NC(=O)[C@@H](NC(=O)[C@H](C)NC(=O)[C@H](CC(=O)O)NC(=O)[C@@H](CCCNC(=N)N)NC(=O)[C@H](Cc1ccc(O)cc1)NC(=O)CCCCCCCCCCCNC(=O)Cc1ccccc1)[C@@H](C)CC)[C@@H](C)O)C(C)C)[C@@H](C)CC)C(=O)N[C@H](CCCNC(=N)N)C(=O)N[C@@H](CCCCNC(=N)N)C(=O)NC [AVR-234, PhAC-Ada-Tyr-DArg-Asp-Ala-Ile-Cpa-Thr-Asn-Arg-Tyr(Me)-Arg-Lys-Val-Leu-Abu-Gln-Leu-Ser-Ala-Arg-Lys-Leu-Leu-Gln-Asp-Ile-Nle-DArg-Har-NHCH3] ({PhAc-12Ado}-Y[dR]DAI[Phe(4-Cl)]TNRY(Me)RKVL[Abu]QLSARKLLQDI[Nle][dR][hArg]-NHMe)	2.205	1.709	4.510
CCCC[C@H](NC(=O)[C@@H](NC(=O)[C@H](CC(=O)O)NC(=O)[C@H](CCC(N)=O)NC(=O)[C@H](CC(C)C)NC(=O)[C@H](CC(C)C)NC(=O)[C@H](CCCCN)NC(=O)[C@H](CCCNC(=N)N)NC(=O)[C@H](C)NC(=O)[C@H](CO)NC(=O)[C@H](CC(C)C)NC(=O)[C@H](CCC(N)=O)NC(=O)[C@H](CC)NC(=O)[C@H](CC(C)C)NC(=O)[C@@H](NC(=O)[C@H](CCCCN)NC(=O)[C@H](CCCNC(=N)N)NC(=O)[C@H](Cc1ccc(OC)cc1)NC(=O)[C@H](CCCCNC(=N)N)NC(=O)[C@H](CC(N)=O)NC(=O)[C@@H](NC(=O)[C@H](Cc1ccc(Cl)cc1)NC(=O)[C@@H](NC(=O)[C@H](C)NC(=O)[C@H](CC(=O)O)NC(=O)[C@@H](CCCNC(=N)N)NC(=O)[C@H](Cc1ccc(O)cc1)NC(=O)CCCCCCCCCCCNC(=O)Cc1ccccc1)[C@@H](C)CC)[C@@H](C)O)C(C)C)[C@@H](C)CC)C(=O)N[C@H](CCCNC(=N)N)C(=O)N[C@@H](CCCCNC(=N)N)C(=O)NCCCCCCCC(=O)NC [AVR-321, PhAC-Ada-Tyr-DArg-Asp-Ala-Ile-Cpa-Thr-Asn-Har-Tyr(Me)-Arg-Lys-Val-Leu-Abu-Gln-Leu-Ser-Ala-Arg-Lys-Leu-Leu-Gln-Asp-Ile-Nle-DArg-Har-Aoc-NHCH3] ({PhAc-12Ado}-Y[dR]DAI[Phe(4-Cl)]TN[hArg]Y(Me)RKVL[Abu]QLSARKLLQDI[Nle][dR][hArg][Aoc]-NHMe)	–	1.414	–
CCCC[C@H](NC(=O)[C@@H](NC(=O)[C@H](CC(=O)O)NC(=O)[C@H](CCC(N)=O)NC(=O)[C@H](CC(C)C)NC(=O)[C@H](CC(C)C)NC(=O)[C@H](CCCCN)NC(=O)[C@H](CCCNC(=N)N)NC(=O)[C@H](C)NC(=O)[C@H](CO)NC(=O)[C@H](CC(C)C)NC(=O)[C@H](CCC(N)=O)NC(=O)[C@H](CC)NC(=O)[C@H](CC(C)C)NC(=O)[C@@H](NC(=O)[C@H](CCCCN)NC(=O)[C@H](CCCNC(=N)N)NC(=O)[C@H](Cc1ccc(OC)cc1)NC(=O)[C@H](CCCCNC(=N)N)NC(=O)[C@H](CC(N)=O)NC(=O)[C@@H](NC(=O)[C@H](Cc1ccc(Cl)cc1)NC(=O)[C@@H](NC(=O)[C@H](C)NC(=O)[C@H](CC(=O)O)NC(=O)[C@@H](CCCNC(=N)N)NC(=O)[C@H](Cc1ccc(O)cc1)NC(=O)CCCCCCCCCCCNC(=O)Cc1c(F)c(F)c(F)c(F)c1F)[C@@H](C)CC)[C@@H](C)O)C(C)C)[C@@H](C)CC)C(=O)N[C@H](CCCNC(=N)N)C(=O)N[C@@H](CCCCNC(=N)N)C(=O)NCCCCCCCC(=O)NC [AVR-322, 5FPhAC-Ada-Tyr-DArg-Asp-Ala-Ile-Cpa-Thr-Asn-Har-Tyr(Me)-Arg-Lys-Val-Leu-Abu-Gln-Leu-Ser-Ala-Arg-Lys-Leu-Leu-Gln-Asp-Ile-Nle-DArg-Har-Aoc-NHCH3] ({Phenylacetyl(2,3,4,5,6-F5)-12Ado}-Y[dR]DAI[Phe(4-Cl)]TN[hArg]Y(Me)RKVL[Abu]QLSARKLLQDI[Nle][dR][hArg][Aoc]-NHMe)	–	1.296	–
CCCC[C@H](NC(=O)[C@@H](NC(=O)[C@H](CC(=O)O)NC(=O)[C@H](CCC(N)=O)NC(=O)[C@H](CC(C)C)NC(=O)[C@H](CC(C)C)NC(=O)[C@H](CCCCN)NC(=O)[C@H](CCCNC(=N)N)NC(=O)[C@H](C)NC(=O)[C@H](CO)NC(=O)[C@H](CC(C)C)NC(=O)[C@H](CCC(N)=O)NC(=O)[C@H](CC)NC(=O)[C@H](CC(C)C)NC(=O)[C@@H](NC(=O)[C@H](CCCCN)NC(=O)[C@H](CCCNC(=N)N)NC(=O)[C@H](Cc1ccc(OC)cc1)NC(=O)[C@H](CCCCNC(=N)N)NC(=O)[C@H](CC(N)=O)NC(=O)[C@@H](NC(=O)[C@H](Cc1ccc(Cl)cc1)NC(=O)[C@@H](NC(=O)[C@H](C)NC(=O)[C@H](CC(=O)O)NC(=O)[C@@H](CCCNC(=N)N)NC(=O)[C@H](Cc1ccc(O)cc1)NC(=O)CCCCCCCCCCCNC(=O)Cc1ccccc1)[C@@H](C)CC)[C@@H](C)O)C(C)C)[C@@H](C)CC)C(=O)N[C@H](CCCNC(=N)N)C(=O)N[C@@H](CCCCNC(=N)N)C(=O)NCCCCCCCCCCCC(N)=O [AVR-332] ({PhAc-12Ado}-Y[dR]DAI[Phe(4-Cl)]TN[hArg]Y(Me)RKVL[Abu]QLSARKLLQDI[Nle][dR][hArg][12Ado]-NH2)	–	1.643	–
CCCC[C@H](NC(=O)[C@@H](NC(=O)[C@H](CC(=O)O)NC(=O)[C@H](CCC(N)=O)NC(=O)[C@H](CC(C)C)NC(=O)[C@H](CC(C)C)NC(=O)[C@H](CCCN)NC(=O)[C@H](Cc1c[nH]cn1)NC(=O)[C@H](C)NC(=O)[C@H](CO)NC(=O)[C@H](CC(C)C)NC(=O)[C@H](CCC(N)=O)NC(=O)[C@H](CC)NC(=O)[C@H](CC(C)C)NC(=O)[C@@H](NC(=O)[C@H](CCCCN)NC(=O)[C@H](CCCNC(=N)N)NC(=O)[C@H](Cc1ccc(OC)cc1)NC(=O)[C@H](CCCNC(=N)N)NC(=O)[C@H](CC(N)=O)NC(=O)[C@@H](NC(=O)[C@H](Cc1ccc(Cl)cc1)NC(=O)[C@@H](NC(=O)[C@H](C)NC(=O)[C@H](CC(=O)O)NC(=O)[C@@H](CCCNC(=N)N)NC(=O)[C@H](Cc1ccc(O)cc1)NC(=O)CCCCCCCCCCCNC(=O)Cc1c(F)c(F)c(F)c(F)c1F)[C@@H](C)CC)[C@@H](C)O)C(C)C)[C@@H](C)CC)C(=O)N[C@H](CCCNC(=N)N)C(=O)N[C@@H](CCCCNC(=N)N)C(=O)NCCCCCCCCCCCC(N)=O [AVR-620, 5FPhAC-Ada-Tyr-DArg-Asp-Ala-Ile-Cpa-Thr-Asn-Arg-Tyr(Me)-Arg-Lys-Val-Leu-Abu-Gln-Leu-Ser-Ala-His-Orn-Leu-Leu-Gln-Asp-Ile-Nle-DArg-Har-Ada-NH2] ({Phenylacetyl(2,3,4,5,6-F5)-12Ado}-Y[dR]DAI[Phe(4-Cl)]TNRY(Me)RKVL[Abu]QLSAH[Orn]LLQDI[Nle][dR][hArg][12Ado]-NH2)	1.567	1.769	3.753

Source: patent publication US11993640B2, “Treating inflammatory lung disease” (United States Government as represented by the Department …, priority 2019, dated 2024)
